The nature of data set [1]: Absorbance and fluorescence of phenol-benzoate derivatives in PBS 7.4. Particulars: for λ maxem [nm] / λ maxex [nm] / ΦFluorescence / ε 400 nm: PBS 7.4; for Relative fluorescence emission: PBS 7.4, relative to 6a; for fluorescence emission intensity relative to parent benzoate without chlorine: 7a vs 6a, 9a vs 8a. The format is physicochemical. The procedure: General. […] Fluorescence quantum yield was determined using Hamamatsu Quantaurus-QY.
To evaluate the substituent effect, numerous phenol-benzoate derivatives with acceptor substituents at ortho and para positions of the phenol were synthesized, and their fluorescent emission in PBS 7.4 were measured. The most significant effect was obtained when an acceptor was incorporated at the ortho position of the phenol. Following broad screen of electron-withdrawing groups, we chose to focus on the chlorine, methyl-acrylate and acrylonitrile substituents. It was previously shown that in order to enable the chemiexcitation mechanism under physiological conditions, a chlorine substituent is introduced at the ortho position of phenolic ring. This electron-withdrawing substituent decreases the pKa of the phenol released after cleavage of the protecting group and thereby enriches the relative concertation of the phenolate species in physiological pH. The methyl-acrylate and acrylonitrile substituents induced the highest increase in fluorescence emission of their corresponded phenol-benzoates. The absorbance and fluorescence spectra of selected phenol-benzoate derivatives are shown in FIG. 11, and their molecular structure and spectroscopic parameters are summarized Table 9.

Another data set can be described thus: Aqueous solubility. In kind it is physicochemical.
The subject of data set [2] is alkaline phosphatase (AP). Put plainly: Chemiluminescence detection of alkaline phosphatase by Probe 11. In kind it is biochemical. The protocol:
(§1) On the left—a comparison between light emission observed by Probe 10 (1 mM; left vial) to that observed by Luminol (1 mM; right vial) upon incubation with hydrogen peroxide under aqueous conditions at pH 10. Probe 12 is a chemiluminescence for detection of GSH.
FIGS. 15A-15B show (15A) total light emitted from Probe 10 (100 μM), Probe 11 (10 μM) and Probe 12 (10 μM) in the presence of hydrogen peroxide (1 mM), alkaline phosphatase (AP) (1.5 EU/ml) or glutathione (1 mM). […]; and (15B) total light emitted from Probe 10 (500 μM), Probe 11 (500 μM) and Probe 12 (10 μM) in PBS (100 mM), pH 7.4 with 10% DMSO over a period of 1 h, with various concentration of the corresponding stimulus. A detection limit (blank control+3 SD) was determined for each probe.
(§2) The activation of our chemiluminescence probes is based on removal of a protecting group from the phenolic moiety. Therefore, different phenol-protecting groups could be incorporated as triggering substrates for various analytes/enzymes (Redy-Keisar et al., 2014). […] Probe 10 was equipped with boronic-ester as a substrate for hydrogen peroxide, Probe 11 with phosphate group as a substrate for alkaline-phosphatase and Probe 12 with dinitro-benzene-sulfonyl group as a substrate for GSH (FIG. 14). The probes were prepared with an acrylic acid or methyl acrylate substituent at the ortho position of the phenolic oxygen. […] As described above, the probes decompose upon their activation to release the excited state of the coresponed benzoate. The acrylate substituent efficiently increases the emissive nature of the released benzoate to produce strong light emission, clearly visible to the naked eye.
(§3) To evaluate the sensitively and selectivity of Probes 10, 11 and 12 to detect their corresponded analyte/enzyme, we determined the probes' limit of detection (LOD). […] Probe 10 could detect hydrogen peroxide with an LOD value of 30 nM, Probe 11 could detect alkaline-phosphatase with an LOD value of 3.9 μU/ml and Probe 12 could detect GSH with an LOD value of 1.7 μM.

Data set [3] in a line: Chemiluminescence detection of glutathione by Probe 12. The format is biochemical. The procedure:
(§4) FIGS. 15A-15B show (15A) total light emitted from Probe 10 (100 μM), Probe 11 (10 μM) and Probe 12 (10 μM) in the presence of hydrogen peroxide (1 mM), alkaline phosphatase (AP) (1.5 EU/ml) or glutathione (1 mM). Measurements were conducted in PBS (100 mM), pH 7.4, with 10% DMSO at RT; and (15B) total light emitted from Probe 10 (500 μM), Probe 11 (500 μM) and Probe 12 (10 μM) in PBS (100 mM), pH 7.4 with 10% DMSO over a period of 1 h, with various concentration of the corresponding stimulus. A detection limit (blank control+3 SD) was determined for each probe.
The activation of our chemiluminescence probes is based on removal of a protecting group from the phenolic moiety. Therefore, different phenol-protecting groups could be incorporated as triggering substrates for various analytes/enzymes (Redy-Keisar et al., 2014). […] Probe 10 was equipped with boronic-ester as a substrate for hydrogen peroxide, Probe 11 with phosphate group as a substrate for alkaline-phosphatase and Probe 12 with dinitro-benzene-sulfonyl group as a substrate for GSH (FIG. 14). The probes were prepared with an acrylic acid or methyl acrylate substituent at the ortho position of the phenolic oxygen. […]
To evaluate the sensitively and selectivity of Probes 10, 11 and 12 to detect their corresponded analyte/enzyme, we determined the probes' limit of detection (LOD). […]

The nature of data set [4]: Chemiluminescence of adamantylidene-dioxetane luminophores 5b-9b in PBS 7.4. The format is physicochemical. The following applies: for λ maxCL [nm] / chemiluminescence emission signal relative to dioxetane 5b: PBS 7.4; for ΦCL(H20) %: aqueous, 5b as reference; for Relative CL emission: relative to 5b; for chemiluminescence emission signal upon deprotonation: water / PBS 7.4.

A short description of data set [5]: Chemiluminescence detection of hydrogen peroxide by Probe 10. The format is biochemical. The procedure: as §1, §4, §2, §3
Another data set concerns β-galactosidase. The following applies: 1 μM, 1.5 units/mL β-galactosidase; for chemiluminescence emission signal relative to Probe 5: PBS pH 7.4 (10% DMSO), room temp.
For data set [6] the following is noted: reference compound, known value (Trofimov et al., 1996; Edwards et al., 1994); cited from earlier work.
Setting [7] is: 500 μM probe, PBS (100 mM) pH 7.4, 10% DMSO, 1 h, blank control+3 SD.

The source of these data is patent US11931429B2, “Chemiluminescent probes for diagnostics and in vivo imaging” (RAMOT AT TEL-AVIV UNIVERSITY LTD., priority 2016, dated 2024).

Entries after “also recorded” stand apart in the source; their conditions may differ. Read-outs that look alike come from different tables or passages of the source.

Protocol for β-galactosidase: Next, we measured the light chemiluminescence emission of the probes, as a function of time, in the presence and in the absence of β-galactosidase.
Commercially available Emerald-II™ enhancer (10%) was added to Probe 5 in the presence of β-galactosidase (in PBS 7.4) and its chemiluminescence emission was compared to that of Probe 6.

With `COC(=O)c1cccc(O)c1Cl` [Benzoate 5a, reference compound], in data set [1], the “λ maxem [nm]” value is 470 nm, the “λ maxex [nm]” value was found to be 290 nm and the Relative fluorescence emission entry is reported as “do not present any measurable fluorescence; also recorded: Negligible”.
On to `COC1(c2ccc(/C=C/C(=O)O)c(OP(=O)(O)O)c2)OOC12C1CC3CC(C1)CC2C3` (centres unmarked) [Probe 11], for which the “aqueous solubility” value in “Aqueous solubility” is given as “increased significantly”. Further, the LOD for alkaline-phosphatase in data set [2] (setting [7]) stood at 3.9 μU/ml. For the same compound, in data set [2] (1 mM, pH 10), the “luminescence upon reaction with enzyme” value is listed as “bright green luminescence”. In addition, the “selectivity towards analyte of choice” value in data set [2] (vs hydrogen peroxide and glutathione, physiological conditions) was “very good selectivity”.
Regarding `COC(=O)/C=C/c1ccc(C2(OC)OOC23C2CC4CC(C2)CC3C4)cc1OCc1ccc(NS(=O)(=O)c2ccc([N+](=O)[O-])cc2[N+](=O)[O-])cc1` (centres unmarked) [Probe 12], the “aqueous solubility” value in “Aqueous solubility” is recorded as “relatively moderate aqueous solubility”. Further, the applicable concentration range in “Aqueous solubility” (aqueous) was in the range of 1 to 10 µM. Also, in data set [3] (10 μM probe, PBS (100 mM) pH 7.4, 10% DMSO, 1 h, blank control+3 SD), the “LOD for GSH” value was determined as 1.7 µM. The “selectivity towards analyte of choice” value in data set [3] (vs hydrogen peroxide and alkaline phosphatase, physiological conditions) was “very good selectivity”.
For the compound `COC(=O)c1ccc(/C=C/C#N)c(O)c1Cl` [Benzoate 9a], in data set [1], the “fluorescence emission intensity relative to parent benzoate without chlorine” value is “about 4 fold”, the ΦFluorescence is 29.8%, the “ε 400 nm” value was determined as 7700 and the “λ maxem [nm]” value stood at 525 nm. In addition, in data set [1], the “λ maxex [nm]” value is given as 400 nm and the Relative fluorescence emission is on record as 18.0.
Take `COC1(c2ccc(/C=C/C#N)c(O)c2)OOC12C1CC3CC(C1)CC2C3` (centres unmarked) [Phenol 8b]: in data set [4], the “λ maxCL [nm]” value is recorded as 525 nm, the “ΦCL(H20) %” value is reported as 7.4%, the “Relative CL emission” value is recorded as 2295 and the “chemiluminescence emission signal upon deprotonation” value is “remarkably strong chemiluminescence emission signal”.
As for `COC(=O)/C=C/c1ccc(C(=O)OC)c(Cl)c1O` [Benzoate 7a], in data set [1], the “fluorescence emission intensity relative to parent benzoate without chlorine” value is listed as “about 10 fold”, the ΦFluorescence is on record as 5.2%, the “ε 400 nm” value came out at 7400 and the “λ maxem [nm]” value is given as 550 nm. Besides, in data set [1], the “λ maxex [nm]” value came to 400 nm and the Relative fluorescence emission was 10.6.
Take `COC(=O)/C=C/c1ccc(C(=O)OC)cc1O` [Benzoate 6a]: in data set [1], the ΦFluorescence is 0.5%, the “ε 400 nm” value is 1200, the “λ maxem [nm]” value was found to be 550 nm and the “λ maxex [nm]” value was found to be 400 nm. Further, the Relative fluorescence emission in data set [1] was 1.
On to `COC1(c2ccc(/C=C/C(=O)O)c(B3OC(C)(C)C(C)(C)O3)c2)OOC12C1CC3CC(C1)CC2C3` (centres unmarked) [Probe 10], for which, in the data set “Aqueous solubility”, the “aqueous solubility” value is reported as “increased significantly”. Besides, in data set [5] (setting [7]), the “LOD for hydrogen peroxide” value was determined as 30 nM. The “luminescence upon reaction with analyte” value in data set [5] (1 mM, pH 10) was “bright green luminescence”. Moreover, in data set [5] (vs alkaline phosphatase and glutathione, physiological conditions), the “selectivity towards analyte of choice” value is “very good selectivity”.
In the case of `COC1(c2ccc(/C=C/C#N)c(O)c2Cl)OOC12C1CC3CC(C1)CC2C3` (centres unmarked) [Phenol 9b], in data set [4], the “chemiluminescence emission signal relative to dioxetane 5b” value was “about 3000 fold”, the “λ maxCL [nm]” value turned out to be 525 nm, the “ΦCL(H20) %” value turned out to be 9.8% and the “Relative CL emission” value was determined as 3043. Further, the “chemiluminescence emission signal upon deprotonation” value in data set [4] was “remarkably strong chemiluminescence emission signal”.
Take `COC(=O)/C=C/c1ccc(C2(OC)OOC23C2CC4CC(C2)CC3C4)cc1OCc1ccc(O[C@@H]2OC(CO)[C@H](O)C(O)C2O)cc1` (some centres unmarked) [Probe 6]: in the data set on β-galactosidase, the “chemiluminescence emission signal relative to Probe 5” value was “about 500 fold”.
As for `COC(=O)c1ccc(/C=C/C#N)c(O)c1` [Benzoate 8a], in data set [1], the ΦFluorescence worked out at 7%, the “ε 400 nm” value is given as 2200, the “λ maxem [nm]” value was determined as 525 nm and the “λ maxex [nm]” value was 400 nm. For the same compound, in data set [1], the Relative fluorescence emission was 4.7.
With `COC1(c2cccc(O)c2Cl)OOC12C1CC3CC(C1)CC2C3` (centres unmarked) [Phenol 5b, reference compound], the “ΦCL(H20) %” value in data set [6] is 3.2×10^−3%. Besides, in data set [4], the “λ maxCL [nm]” value was 470 nm, the “Relative CL emission” value was found to be 1 and the “chemiluminescence emission signal upon deprotonation” value is given as “extremely weak”.
In the case of `COC(=O)c1cccc(O)c1` [Benzoate 4a, reference compound], in data set [1], the “λ maxem [nm]” value is listed as 470 nm, the “λ maxex [nm]” value worked out at 290 nm and the Relative fluorescence emission result is recorded as “do not present any measurable fluorescence; also recorded: negligible”.
For the compound `COC1(c2ccc(/C=C/C#N)c(OCc3ccc(O[C@@H]4OC(CO)[C@H](O)C(O)C4O)cc3)c2Cl)OOC12C1CC3CC(C1)CC2C3` (some centres unmarked) [Probe 9], the “chemiluminescence emission signal relative to Probe 5 with Emerald-II™ enhancer” value with β-galactosidase (PBS 7.4 (10% DMSO)) is given as “more than 8 fold”. Besides, the “chemiluminescence emission signal relative to Probe 5” value in the data set on β-galactosidase is listed as “about 1800 fold”.
With `COC(=O)/C=C/c1ccc(C2(OC)OOC23C2CC4CC(C2)CC3C4)c(Cl)c1O` (centres unmarked) [Phenol 7b], in data set [4], the “λ maxCL [nm]” value is 540 nm, the “ΦCL(H20) %” value came to 2.5%, the “Relative CL emission” value is listed as 780 and the “chemiluminescence emission signal upon deprotonation” value is given as “remarkably strong chemiluminescence emission signal”.
Consider `COC(=O)/C=C/c1ccc(C2(OC)OOC23C2CC4CC(C2)CC3C4)cc1O` (centres unmarked) [Phenol 6b], for which, in data set [4], the “chemiluminescence emission signal relative to dioxetane 5b” value is on record as “about 700 fold”, the “λ maxCL [nm]” value is listed as 540 nm, the “ΦCL(H20) %” value is 2.3% and the “Relative CL emission” value was 724. Besides, the “chemiluminescence emission signal upon deprotonation” value in data set [4] is “remarkably strong chemiluminescence emission signal”.
